From PubChem BioAssay (NCI)
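Briefly, cells in 96-well plates were exposed to five compound concentrations for 48 h, and endpoints were estimated by linear interpolation. TGI marks complete inhibition of growth.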

Columns and labels:
Assay in all cases: NCI-60 cell line screen, 48 h
[1] = system: A498 renal
[2] = system: A549 NSCLC
[3] = system: CCRF-CEM leukemia
[4] = system: EKVX NSCLC
[5] = system: HCC-2998 colon
[6] = system: HCT-15 colon
[7] = system: HT29 colon
[8] = system: MDA-MB-231 breast
[9] = system: MDA-MB-435
[10] = system: MDA-N
[11] = system: MOLT-4 leukemia
[12] = system: NCI-H460 lung
[13] = system: NCI-H522 lung
[14] = system: NCI/ADR-RES ovarian
[15] = system: OVCAR-4 ovarian
[16] = system: OVCAR-5 ovarian
[17] = system: RPMI-8226 leukemia
[18] = system: SK-MEL-28 melanoma
[19] = system: SN12C renal
[20] = system: UACC-257 melanoma

Structure (SMILES): C=C1C(=O)OC2CC(=C)C3CC=C(C)C3CC12 (stereo not given)
- TGI [1]: > 100 µM
- TGI [2]: > 100 µM
- TGI [3]: > 100 µM
- TGI [4]: > 100 µM
- TGI [5]: 43.3 µM
- TGI [6]: 36.7 µM
- TGI [7]: 28.5 µM
- TGI [8]: 63.7 µM
- TGI [9]: 32.6 µM
- TGI [10]: 30.6 µM
- TGI [11]: 46.8 µM
- TGI [12]: > 100 µM
- TGI [13]: 36.2 µM
- TGI [14]: > 100 µM
- TGI [15]: > 100 µM
- TGI [16]: > 100 µM
- TGI [17]: > 100 µM
- TGI [18]: 77.3 µM
- TGI [19]: 31.7 µM
- TGI [20]: 27.5 µM

Structure (SMILES): CC(C)(C)OC/C=C1\C(=O)O[C@H]2C[C@@H](O[Si](C)(C)C(C)(C)C)C[C@@H]12
- TGI [1]: > 100 µM
- TGI [2]: > 100 µM
- TGI [3]: > 100 µM
- TGI [4]: > 100 µM
- TGI [5]: > 100 µM
- TGI [6]: > 100 µM
- TGI [7]: > 100 µM
- TGI [8]: > 100 µM
- TGI [9]: > 100 µM
- TGI [10]: > 100 µM
- TGI [11]: > 100 µM
- TGI [12]: > 100 µM
- TGI [13]: 90.7 µM
- TGI [14]: > 100 µM
- TGI [15]: > 100 µM
- TGI [16]: > 100 µM
- TGI [17]: > 100 µM
- TGI [18]: > 100 µM
- TGI [19]: > 100 µM
- TGI [20]: > 100 µM

Structure (SMILES): NC(=O)/C=c1/c2ccccc2n2nc3ccccc3c12
- TGI [1]: 79.4 µM
- TGI [2]: > 100 µM
- TGI [3]: > 100 µM
- TGI [4]: 42.7 µM
- TGI [5]: 36.8 µM
- TGI [6]: 40.8 µM
- TGI [7]: 29.8 µM
- TGI [8]: 7.52 µM
- TGI [9]: 35.1 µM
- TGI [10]: 35.6 µM
- TGI [11]: 7.69 µM
- TGI [12]: > 100 µM
- TGI [13]: 33.2 µM
- TGI [14]: 50.7 µM
- TGI [15]: 39.4 µM
- TGI [16]: 77.8 µM
- TGI [17]: 29.1 µM
- TGI [18]: 33.9 µM
- TGI [19]: 40.2 µM
- TGI [20]: 41 µM

Structure (SMILES): CCCCCCCCCCCCOc1ccc(/C=C/C2=[N+](CCCl)CCO2)cc1
- TGI [1]: > 100 µM
- TGI [2]: > 100 µM
- TGI [3]: > 100 µM
- TGI [4]: > 100 µM
- TGI [5]: > 100 µM
- TGI [6]: > 100 µM
- TGI [7]: > 100 µM
- TGI [8]: > 100 µM
- TGI [9]: > 100 µM
- TGI [10]: > 100 µM
- TGI [11]: > 100 µM
- TGI [12]: > 100 µM
- TGI [13]: 47 µM
- TGI [14]: > 100 µM
- TGI [15]: > 100 µM
- TGI [16]: > 100 µM
- TGI [17]: > 100 µM
- TGI [18]: > 100 µM
- TGI [19]: > 100 µM
- TGI [20]: > 100 µM

Structure (SMILES): O=c1c2cc(Cl)ccc2[nH]c2cc(O)cc(O)c12
- TGI [1]: > 10 µM
- TGI [2]: > 10 µM
- TGI [3]: > 10 µM
- TGI [4]: > 10 µM
- TGI [5]: > 10 µM
- TGI [6]: > 10 µM
- TGI [7]: > 10 µM
- TGI [8]: > 10 µM
- TGI [9]: > 10 µM
- TGI [10]: > 10 µM
- TGI [11]: > 10 µM
- TGI [12]: > 10 µM
- TGI [13]: > 10 µM
- TGI [14]: > 10 µM
- TGI [15]: > 10 µM
- TGI [16]: > 10 µM
- TGI [17]: > 10 µM
- TGI [18]: > 10 µM
- TGI [19]: > 10 µM
- TGI [20]: > 10 µM

Structure (SMILES): CCOC(=O)c1c(-c2ccc(Br)cc2)ccn1C
- TGI [1]: > 10 µM
- TGI [2]: > 10 µM
- TGI [3]: > 10 µM
- TGI [4]: > 10 µM
- TGI [5]: > 10 µM
- TGI [6]: > 10 µM
- TGI [7]: > 10 µM
- TGI [8]: > 10 µM
- TGI [9]: > 10 µM
- TGI [10]: > 10 µM
- TGI [11]: > 10 µM
- TGI [12]: > 10 µM
- TGI [13]: > 10 µM
- TGI [14]: > 10 µM
- TGI [15]: > 10 µM
- TGI [16]: > 10 µM
- TGI [17]: > 10 µM
- TGI [18]: > 10 µM
- TGI [19]: > 10 µM
- TGI [20]: > 10 µM

Structure (SMILES): CN(C)c1ccc(-c2ccc(N(C)C)c3n[se]nc23)c2n[se]nc12
- TGI [1]: > 100 µM
- TGI [2]: > 100 µM
- TGI [3]: > 100 µM
- TGI [4]: > 100 µM
- TGI [5]: > 100 µM
- TGI [6]: > 100 µM
- TGI [7]: > 100 µM
- TGI [8]: > 100 µM
- TGI [9]: > 100 µM
- TGI [10]: > 100 µM
- TGI [11]: > 100 µM
- TGI [12]: > 100 µM
- TGI [13]: > 100 µM
- TGI [14]: > 100 µM
- TGI [15]: > 100 µM
- TGI [16]: > 100 µM
- TGI [17]: > 100 µM
- TGI [18]: > 100 µM
- TGI [19]: > 100 µM
- TGI [20]: > 100 µM

Structure (SMILES): CCOC(=O)/C=C/[C@H](O)[C@@H](O)/C=C/C(=O)OCC
- TGI [1]: > 100 µM
- TGI [2]: > 100 µM
- TGI [3]: 32.6 µM
- TGI [4]: 58.8 µM
- TGI [5]: > 100 µM
- TGI [6]: 59.7 µM
- TGI [7]: 36.9 µM
- TGI [8]: > 100 µM
- TGI [9]: > 100 µM
- TGI [10]: > 100 µM
- TGI [11]: 41.5 µM
- TGI [12]: 43 µM
- TGI [13]: 39.2 µM
- TGI [14]: > 100 µM
- TGI [15]: > 100 µM
- TGI [16]: > 100 µM
- TGI [17]: 44.6 µM
- TGI [18]: 44.3 µM
- TGI [19]: 85.2 µM
- TGI [20]: > 100 µM

Structure (SMILES): CN(C)CC1CCCCCCCCCC(CN(C)C)C1=O (stereo not given)
- TGI [1]: > 46.2 µM
- TGI [2]: > 51.5 µM
- TGI [3]: > 26.4 µM
- TGI [4]: > 54.2 µM
- TGI [5]: > 100 µM
- TGI [6]: > 61.2 µM
- TGI [7]: > 43.8 µM
- TGI [8]: 84.6 µM
- TGI [9]: 19.7 µM
- TGI [10]: 30.9 µM
- TGI [11]: > 25.7 µM
- TGI [12]: > 57 µM
- TGI [13]: 10.5 µM
- TGI [14]: 52.1 µM
- TGI [15]: > 41.2 µM
- TGI [16]: > 63.6 µM
- TGI [17]: > 100 µM
- TGI [18]: > 54.4 µM
- TGI [19]: > 53.5 µM
- TGI [20]: > 48.1 µM
